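The compound was tested at five concentrations on cells cultured in 96-well plates, with a 48-hour exposure period. TGI denotes the concentration required for complete inhibition of growth.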
Legend:
Assay in all cases: NCI anticancer screen, dose series, 48 h
U251 CNS = tested on: U251 CNS
SF-295 CNS = tested on: SF-295 CNS
T-47D breast = tested on: T-47D breast
NCI-H226 lung = tested on: NCI-H226 lung
OVCAR-8 ovarian = tested on: OVCAR-8 ovarian
SK-MEL-2 melanoma = tested on: SK-MEL-2 melanoma
HT29 colon = tested on: HT29 colon
SK-MEL-28 melanoma = tested on: SK-MEL-28 melanoma
TK-10 renal = tested on: TK-10 renal
EKVX NSCLC = tested on: EKVX NSCLC
SNB-19 CNS = tested on: SNB-19 CNS
K-562 leukemia = tested on: K-562 leukemia
SR leukemia = tested on: SR leukemia
MDA-N = tested on: MDA-N
SK-OV-3 ovarian = tested on: SK-OV-3 ovarian
RXF 393 renal = tested on: RXF 393 renal
SW-620 colon = tested on: SW-620 colon
OVCAR-4 ovarian = tested on: OVCAR-4 ovarian
MDA-MB-435 = tested on: MDA-MB-435
SN12C renal = tested on: SN12C renal
OVCAR-5 ovarian = tested on: OVCAR-5 ovarian
MALME-3M melanoma = tested on: MALME-3M melanoma
CAKI-1 renal = tested on: CAKI-1 renal
HCC-2998 colon = tested on: HCC-2998 colon
HOP-62 NSCLC = tested on: HOP-62 NSCLC
MCF7 breast = tested on: MCF7 breast
NCI/ADR-RES ovarian = tested on: NCI/ADR-RES ovarian
CCRF-CEM leukemia = tested on: CCRF-CEM leukemia
A498 renal = tested on: A498 renal
SF-539 CNS = tested on: SF-539 CNS
A549 NSCLC = tested on: A549 NSCLC
SF-268 CNS = tested on: SF-268 CNS
786-0 renal = tested on: 786-0 renal
ACHN renal = tested on: ACHN renal
NCI-H522 lung = tested on: NCI-H522 lung
OVCAR-3 ovarian = tested on: OVCAR-3 ovarian
PC-3 prostate = tested on: PC-3 prostate
HCT-116 colon = tested on: HCT-116 colon
RPMI-8226 leukemia = tested on: RPMI-8226 leukemia
UACC-62 melanoma = tested on: UACC-62 melanoma
MDA-MB-231 breast = tested on: MDA-MB-231 breast
SK-MEL-5 melanoma = tested on: SK-MEL-5 melanoma
HL-60(TB) leukemia = tested on: HL-60(TB) leukemia
IGROV1 ovarian = tested on: IGROV1 ovarian
COLO 205 colon = tested on: COLO 205 colon
DU-145 prostate = tested on: DU-145 prostate
NCI-H23 lung = tested on: NCI-H23 lung
HOP-92 NSCLC = tested on: HOP-92 NSCLC
KM12 colon = tested on: KM12 colon
MOLT-4 leukemia = tested on: MOLT-4 leukemia
UO-31 renal = tested on: UO-31 renal
HCT-15 colon = tested on: HCT-15 colon
M14 melanoma = tested on: M14 melanoma
BT-549 breast = tested on: BT-549 breast
NCI-H460 lung = tested on: NCI-H460 lung
UACC-257 melanoma = tested on: UACC-257 melanoma
HS 578T breast = tested on: HS 578T breast
LOX IMVI melanoma = tested on: LOX IMVI melanoma
SNB-75 CNS = tested on: SNB-75 CNS

Structure (SMILES): CC1(CO)OC(n2cnc3cncnc32)CC1O (configuration not stated)
- TGI (U251 CNS): > 100 µM
- TGI (SF-295 CNS): > 100 µM
- TGI (T-47D breast): > 100 µM
- TGI (NCI-H226 lung): > 100 µM
- TGI (OVCAR-8 ovarian): > 100 µM
- TGI (SK-MEL-2 melanoma): > 100 µM
- TGI (HT29 colon): > 100 µM
- TGI (SK-MEL-28 melanoma): > 100 µM
- TGI (TK-10 renal): > 100 µM
- TGI (EKVX NSCLC): > 100 µM
- TGI (SNB-19 CNS): > 100 µM
- TGI (K-562 leukemia): > 100 µM
- TGI (SR leukemia): > 100 µM
- TGI (MDA-N): > 100 µM
- TGI (SK-OV-3 ovarian): > 100 µM
- TGI (RXF 393 renal): > 100 µM
- TGI (SW-620 colon): > 100 µM
- TGI (OVCAR-4 ovarian): > 100 µM
- TGI (MDA-MB-435): > 100 µM
- TGI (SN12C renal): > 100 µM
- TGI (OVCAR-5 ovarian): > 100 µM
- TGI (MALME-3M melanoma): > 100 µM
- TGI (CAKI-1 renal): > 100 µM
- TGI (HCC-2998 colon): > 100 µM
- TGI (HOP-62 NSCLC): > 100 µM
- TGI (MCF7 breast): > 100 µM
- TGI (NCI/ADR-RES ovarian): > 100 µM
- TGI (CCRF-CEM leukemia): > 100 µM
- TGI (A498 renal): > 100 µM
- TGI (SF-539 CNS): > 100 µM
- TGI (A549 NSCLC): > 100 µM
- TGI (SF-268 CNS): > 100 µM
- TGI (786-0 renal): > 100 µM
- TGI (ACHN renal): > 100 µM
- TGI (NCI-H522 lung): > 100 µM
- TGI (OVCAR-3 ovarian): > 100 µM
- TGI (PC-3 prostate): > 100 µM
- TGI (HCT-116 colon): > 100 µM
- TGI (RPMI-8226 leukemia): > 100 µM
- TGI (UACC-62 melanoma): > 100 µM
- TGI (MDA-MB-231 breast): > 100 µM
- TGI (SK-MEL-5 melanoma): > 100 µM
- TGI (HL-60(TB) leukemia): > 100 µM
- TGI (IGROV1 ovarian): > 100 µM
- TGI (COLO 205 colon): > 100 µM
- TGI (DU-145 prostate): > 100 µM
- TGI (NCI-H23 lung): > 100 µM
- TGI (HOP-92 NSCLC): > 100 µM
- TGI (KM12 colon): > 100 µM
- TGI (MOLT-4 leukemia): > 100 µM
- TGI (UO-31 renal): > 100 µM
- TGI (HCT-15 colon): > 100 µM
- TGI (M14 melanoma): > 100 µM
- TGI (BT-549 breast): > 100 µM
- TGI (NCI-H460 lung): > 100 µM
- TGI (UACC-257 melanoma): > 100 µM

Structure (SMILES): CCN(CC)c1ccc2cc(-c3nc(-c4ccccc4)n[nH]3)c(=O)oc2c1
- TGI (U251 CNS): 96.2 µM
- TGI (SF-295 CNS): > 100 µM
- TGI (OVCAR-8 ovarian): 28.7 µM
- TGI (SK-MEL-2 melanoma): > 100 µM
- TGI (HT29 colon): > 100 µM
- TGI (SK-MEL-28 melanoma): > 100 µM
- TGI (EKVX NSCLC): 88.7 µM
- TGI (SNB-19 CNS): 61.5 µM
- TGI (K-562 leukemia): > 100 µM
- TGI (SR leukemia): > 100 µM
- TGI (MDA-N): > 100 µM
- TGI (SK-OV-3 ovarian): 39.4 µM
- TGI (SW-620 colon): > 100 µM
- TGI (OVCAR-4 ovarian): 53.7 µM
- TGI (MDA-MB-435): > 100 µM
- TGI (OVCAR-5 ovarian): > 100 µM
- TGI (MALME-3M melanoma): > 100 µM
- TGI (CAKI-1 renal): 73.8 µM
- TGI (HCC-2998 colon): > 100 µM
- TGI (HOP-62 NSCLC): 22 µM
- TGI (MCF7 breast): > 100 µM
- TGI (NCI/ADR-RES ovarian): > 100 µM
- TGI (CCRF-CEM leukemia): > 100 µM
- TGI (A498 renal): 90.1 µM
- TGI (HS 578T breast): > 100 µM
- TGI (SF-539 CNS): 45.6 µM
- TGI (A549 NSCLC): > 100 µM
- TGI (SF-268 CNS): > 100 µM
- TGI (786-0 renal): 32.1 µM
- TGI (ACHN renal): > 100 µM
- TGI (NCI-H522 lung): > 100 µM
- TGI (OVCAR-3 ovarian): > 100 µM
- TGI (PC-3 prostate): 70.1 µM
- TGI (LOX IMVI melanoma): > 100 µM
- TGI (HCT-116 colon): > 100 µM
- TGI (RPMI-8226 leukemia): > 100 µM
- TGI (UACC-62 melanoma): > 100 µM
- TGI (SK-MEL-5 melanoma): > 100 µM
- TGI (HL-60(TB) leukemia): > 100 µM
- TGI (IGROV1 ovarian): 57.9 µM
- TGI (COLO 205 colon): > 100 µM
- TGI (DU-145 prostate): 40.4 µM
- TGI (NCI-H23 lung): 44.6 µM
- TGI (KM12 colon): > 100 µM
- TGI (MOLT-4 leukemia): > 100 µM
- TGI (UO-31 renal): 20.4 µM
- TGI (HCT-15 colon): > 100 µM
- TGI (M14 melanoma): > 100 µM
- TGI (BT-549 breast): 89.3 µM
- TGI (NCI-H460 lung): > 100 µM
- TGI (UACC-257 melanoma): > 100 µM

Structure (SMILES): CNC(=O)C(C)C1C(=O)/C(=C(O)/C=C\C(C)=C\C(C)C2OC3(C)OC(C=CC34CO4)C2C)C(=O)N1C1CCC(O)C(C)O1 (configuration not stated)
- TGI (U251 CNS): > 100 µM
- TGI (T-47D breast): > 100 µM
- TGI (OVCAR-8 ovarian): > 100 µM
- TGI (SK-MEL-2 melanoma): > 100 µM
- TGI (HT29 colon): > 100 µM
- TGI (SK-MEL-28 melanoma): > 100 µM
- TGI (TK-10 renal): > 100 µM
- TGI (EKVX NSCLC): > 100 µM
- TGI (SNB-19 CNS): > 100 µM
- TGI (K-562 leukemia): > 100 µM
- TGI (SR leukemia): > 100 µM
- TGI (MDA-N): > 100 µM
- TGI (SK-OV-3 ovarian): > 100 µM
- TGI (RXF 393 renal): > 100 µM
- TGI (SW-620 colon): > 100 µM
- TGI (MDA-MB-435): > 100 µM
- TGI (SN12C renal): > 100 µM
- TGI (OVCAR-5 ovarian): > 100 µM
- TGI (MALME-3M melanoma): > 100 µM
- TGI (CAKI-1 renal): > 100 µM
- TGI (HCC-2998 colon): > 100 µM
- TGI (HOP-62 NSCLC): > 100 µM
- TGI (MCF7 breast): > 100 µM
- TGI (NCI/ADR-RES ovarian): > 100 µM
- TGI (CCRF-CEM leukemia): > 100 µM
- TGI (A498 renal): > 100 µM
- TGI (SF-539 CNS): > 100 µM
- TGI (A549 NSCLC): > 100 µM
- TGI (SF-268 CNS): > 100 µM
- TGI (786-0 renal): > 100 µM
- TGI (ACHN renal): > 100 µM
- TGI (OVCAR-3 ovarian): > 100 µM
- TGI (PC-3 prostate): > 100 µM
- TGI (HCT-116 colon): > 100 µM
- TGI (RPMI-8226 leukemia): > 100 µM
- TGI (UACC-62 melanoma): > 100 µM
- TGI (MDA-MB-231 breast): > 100 µM
- TGI (SK-MEL-5 melanoma): > 100 µM
- TGI (IGROV1 ovarian): > 100 µM
- TGI (COLO 205 colon): > 100 µM
- TGI (SNB-75 CNS): > 100 µM
- TGI (DU-145 prostate): > 100 µM
- TGI (KM12 colon): > 100 µM
- TGI (MOLT-4 leukemia): > 100 µM
- TGI (UO-31 renal): > 100 µM
- TGI (HCT-15 colon): > 100 µM
- TGI (M14 melanoma): > 100 µM
- TGI (BT-549 breast): > 100 µM
- TGI (NCI-H460 lung): > 100 µM
- TGI (UACC-257 melanoma): > 100 µM

Reference: PubChem BioAssay (NCI)
